Experimental data from PMC5218480 (PLoS ONE, 2017).

System: MV-4-11 cells
Assay: Gene expression microarray analysis (Affymetrix PrimeView) and GSEA
Type: cell-based, human
Design: RFU PODN (11730768_x_at) / Fold change /veh PODN (11730768_x_at) / RFU LINC00158 (11744669_a_at) / Fold change /veh LINC00158 (11744669_a_at) / RFU DUSP10 (11751237_a_at) / Fold change /veh DUSP10 (11751237_a_at) / RFU ID3 (11757404_x_at) / Fold change /veh ID3 (11757404_x_at) / RFU PLEKHG5 (11737974_s_at) / Fold change /veh PLEKHG5 (11737974_s_at) / RFU LRRC4B (11730491_at) / Fold change /veh LRRC4B (11730491_at) / RFU GIMAP4 (11747438_a_at) / Fold change /veh GIMAP4 (11747438_a_at) / RFU KRT8 (11758183_x_at) / Fold change /veh KRT8 (11758183_x_at) / RFU CNN1 (11734310_a_at) / Fold change /veh CNN1 (11734310_a_at) / RFU VPS37D (11726825_at) / Fold change /veh VPS37D (11726825_at) / RFU C10orf10 (11716522_x_at) / Fold change /veh C10orf10 (11716522_x_at) / RFU KIR2DL2 /// KIR2DL4 /// KIR2DL5A /// KIR2DL5B /// KIR2DS1 /// KIR2DS2 /// KIR2DS3 /// KIR2DS4 /// KIR3DL3 /// KIR3DL3 /// KIR3DS1 (11738374_at) / Fold change /veh KIR2DL2 /// KIR2DL4 /// KIR2DL5A /// KIR2DL5B /// KIR2DS1 /// KIR2DS2 /// KIR2DS3 /// KIR2DS4 /// KIR3DL3 /// KIR3DL3 /// KIR3DS1 (11738374_at) / RFU C1QL1 (11718748_at) / Fold change /veh C1QL1 (11718748_at) / RFU TMPRSS4 (11747572_a_at) / Fold change /veh TMPRSS4 (11747572_a_at) / RFU HAMP (11756126_x_at) / Fold change /veh HAMP (11756126_x_at) / RFU RNFT2 (11725882_a_at) / Fold change /veh RNFT2 (11725882_a_at) / RFU NR4A2 (11747474_a_at) / Fold change /veh NR4A2 (11747474_a_at) / RFU ABCC12 (11746883_a_at) / Fold change /veh ABCC12 (11746883_a_at) / RFU TMEM136 (11760407_x_at) / Fold change /veh TMEM136 (11760407_x_at) / RFU CLDN22 /// WWC2 (11732394_at) / Fold change /veh CLDN22 /// WWC2 (11732394_at) / RFU HLA-DPB1 (11760878_x_at) / Fold change /veh HLA-DPB1 (11760878_x_at) / RFU SPINT1 (11716480_a_at) / Fold change /veh SPINT1 (11716480_a_at) / RFU GAP43 (11754022_s_at) / Fold change /veh GAP43 (11754022_s_at) / RFU A4GNT (11735810_at) / Fold change /veh A4GNT (11735810_at) / RFU PRB3 (11715151_x_at) / Fold change /veh PRB3 (11715151_x_at) / RFU TUBB4B (11761932_at) / Fold change /veh TUBB4B (11761932_at) / RFU CAPN14 (11732068_a_at) / Fold change /veh CAPN14 (11732068_a_at) / RFU TMCC2 (11721928_a_at) / Fold change /veh TMCC2 (11721928_a_at) / RFU IRGQ (11745062_a_at) / Fold change /veh IRGQ (11745062_a_at) / RFU FAM174B (11720279_a_at) / Fold change /veh FAM174B (11720279_a_at) / RFU TMPRSS4 (11748680_a_at) / Fold change /veh TMPRSS4 (11748680_a_at) / RFU FAM212B (11763350_a_at) / Fold change /veh FAM212B (11763350_a_at) / RFU PLEKHG5 (11743358_a_at) / Fold change /veh PLEKHG5 (11743358_a_at) / RFU ZSCAN30 (11745921_a_at) / Fold change /veh ZSCAN30 (11745921_a_at) / RFU CMKLR1 (11741424_a_at) / Fold change /veh CMKLR1 (11741424_a_at) / RFU LOC101060620 /// MAPK8IP1 (11723275_at) / Fold change /veh LOC101060620 /// MAPK8IP1 (11723275_at) / RFU SPTSSB (11747773_x_at) / Fold change /veh SPTSSB (11747773_x_at) / RFU PRSS12 (11739890_at) / Fold change /veh PRSS12 (11739890_at) / RFU BIN1 (11741810_x_at) / Fold change /veh BIN1 (11741810_x_at) / RFU WNT11 (11732464_a_at) / Fold change /veh WNT11 (11732464_a_at) / RFU C10orf10 (11716521_a_at) / Fold change /veh C10orf10 (11716521_a_at) / RFU C5orf56 (11738089_at) / Fold change /veh C5orf56 (11738089_at) / RFU CYB561 (11721691_x_at) / Fold change /veh CYB561 (11721691_x_at) / RFU ANKRD19P (11752326_a_at) / Fold change /veh ANKRD19P (11752326_a_at) / RFU OR2T12 /// OR2T33 /// OR2T8 (11738714_s_at) / Fold change /veh OR2T12 /// OR2T33 /// OR2T8 (11738714_s_at) / RFU VCAN (11748164_a_at) / Fold change /veh VCAN (11748164_a_at) / RFU JSRP1 (11732532_at) / Fold change /veh JSRP1 (11732532_at) / RFU KRTAP10-11 (11738290_x_at) / Fold change /veh KRTAP10-11 (11738290_x_at) / RFU MYO3A (11730013_a_at) / Fold change /veh MYO3A (11730013_a_at) / RFU EBF3 (11725865_a_at) / Fold change /veh EBF3 (11725865_a_at) / RFU CAMK2N1 (11719241_x_at) / Fold change /veh CAMK2N1 (11719241_x_at) / RFU C5orf56 (11738088_a_at) / Fold change /veh C5orf56 (11738088_a_at) / RFU OLFML3 (11715873_a_at) / Fold change /veh OLFML3 (11715873_a_at) / RFU LOC100653217 /// NTM (11731650_a_at) / Fold change /veh LOC100653217 /// NTM (11731650_a_at) / RFU MAPK11 (11762145_a_at) / Fold change /veh MAPK11 (11762145_a_at) / RFU FIZ1 (11724087_x_at) / Fold change /veh FIZ1 (11724087_x_at) / RFU OASL (11726364_x_at) / Fold change /veh OASL (11726364_x_at) / RFU SOX15 (11748057_x_at) / Fold change /veh SOX15 (11748057_x_at) / RFU CD79A (11719716_a_at) / Fold change /veh CD79A (11719716_a_at) / RFU HIST1H1D (11736915_at) / Fold change /veh HIST1H1D (11736915_at) / RFU CASKIN2 (11723855_a_at) / Fold change /veh CASKIN2 (11723855_a_at) / RFU LOC730098 (11760151_x_at) / Fold change /veh LOC730098 (11760151_x_at) / RFU OR4N2 (11742367_at) / Fold change /veh OR4N2 (11742367_at) / RFU PRRT2 (11749266_a_at) / Fold change /veh PRRT2 (11749266_a_at) / RFU SNX32 (11753110_a_at) / Fold change /veh SNX32 (11753110_a_at) / RFU CDHR5 (11726645_a_at) / Fold change /veh CDHR5 (11726645_a_at) / RFU RCAN1 (11760418_a_at) / Fold change /veh RCAN1 (11760418_a_at) / RFU FAM167A (11723789_a_at) / Fold change /veh FAM167A (11723789_a_at) / RFU FAM26E (11764081_at) / Fold change /veh FAM26E (11764081_at) / RFU ISYNA1 (11749810_s_at) / Fold change /veh ISYNA1 (11749810_s_at) / RFU ACY1 (11761880_at) / Fold change /veh ACY1 (11761880_at) / RFU 11764098_at / Fold change /veh 11764098_at / RFU SAMD14 (11745864_x_at) / Fold change /veh SAMD14 (11745864_x_at) / RFU NPB (11741838_a_at) / Fold change /veh NPB (11741838_a_at) / RFU TMPRSS6 (11731388_a_at) / Fold change /veh TMPRSS6 (11731388_a_at) / RFU KRTAP10-2 (11738614_at) / Fold change /veh KRTAP10-2 (11738614_at) / RFU ARHGAP8 /// PRR5-ARHGAP8 (11727945_x_at) / Fold change /veh ARHGAP8 /// PRR5-ARHGAP8 (11727945_x_at) / RFU KRTAP5-7 /// NADSYN1 (11734609_at) / Fold change /veh KRTAP5-7 /// NADSYN1 (11734609_at) / RFU RASL12 (11751679_a_at) / Fold change /veh RASL12 (11751679_a_at) / RFU CDKN2B (11736163_a_at) / Fold change /veh CDKN2B (11736163_a_at) / RFU PRF1 (11729649_at) / Fold change /veh PRF1 (11729649_at) / RFU, ZNF638 /// ZNF638-IT1 / Fold change vs veh, ZNF638 /// ZNF638-IT1 / RFU, PANK3 / Fold change vs veh, PANK3 / RFU, SH3YL1 / Fold change vs veh, SH3YL1 / RFU, ZEB2 / Fold change vs veh, ZEB2 / RFU, NRIP1 / Fold change vs veh, NRIP1 / RFU, PTTG1IP / Fold change vs veh, PTTG1IP / RFU, CAPN2 / Fold change vs veh, CAPN2 / RFU, MED14 / Fold change vs veh, MED14 / RFU, SNORA58 / Fold change vs veh, SNORA58 / RFU, C1orf63 / Fold change vs veh, C1orf63 / RFU, LRRFIP1 / Fold change vs veh, LRRFIP1 / RFU, NDUFAF7 / Fold change vs veh, NDUFAF7 / RFU, SLC12A2 / Fold change vs veh, SLC12A2 / RFU, IBTK / Fold change vs veh, IBTK / RFU, ESF1 / Fold change vs veh, ESF1 / Fold change vs veh, TMEM50B / RFU, TAOK1 / Fold change vs veh, TAOK1 / RFU, ACBD3 / Fold change vs veh, ACBD3 / RFU, TMA16 / Fold change vs veh, TMA16 / RFU, RWDD3 / Fold change vs veh, RWDD3 / RFU, BCAT1 / Fold change vs veh, BCAT1 / RFU, EDEM3 / Fold change vs veh, EDEM3 / RFU, TMEM33 / Fold change vs veh, TMEM33 / RFU, WDR75 / Fold change vs veh, WDR75 / RFU, AHCTF1 / Fold change vs veh, AHCTF1 / RFU, TFRC / Fold change vs veh, TFRC / RFU, ZDHHC17 / Fold change vs veh, ZDHHC17 / RFU, NOM1 / Fold change vs veh, NOM1 / RFU, ARL8B / Fold change vs veh, ARL8B / RFU, ZBTB11 / Fold change vs veh, ZBTB11 / RFU, TAMM41 / Fold change vs veh, TAMM41 / RFU, KIAA1704 /// LOC100996395 / Fold change vs veh, KIAA1704 /// LOC100996395 / RFU, ING1 / Fold change vs veh, ING1 / RFU, TRMT61B / Fold change vs veh, TRMT61B / RFU, FUBP3 / Fold change vs veh, FUBP3 / RFU, TP53 / Fold change vs veh, TP53 / RFU, TNKS2 / Fold change vs veh, TNKS2 / RFU, ZFP14 / Fold change vs veh, ZFP14 / RFU, ACTR2 / Fold change vs veh, ACTR2 / RFU, PPP3R1 / Fold change vs veh, PPP3R1 / RFU, PIK3R1 / Fold change vs veh, PIK3R1 / RFU, HNRNPA1 / Fold change vs veh, HNRNPA1 / RFU, RNF170 / Fold change vs veh, RNF170 / RFU, ZNF28 / Fold change vs veh, ZNF28 / RFU, RNGTT / Fold change vs veh, RNGTT / RFU, OGT / Fold change vs veh, OGT / RFU, BRD1 / Fold change vs veh, BRD1 / RFU, MARS / Fold change vs veh, MARS / RFU, ZNF655 / Fold change vs veh, ZNF655 / RFU, FAHD1 / Fold change vs veh, FAHD1 / RFU, BDP1 / Fold change vs veh, BDP1 / RFU, LRRCC1 / Fold change vs veh, LRRCC1 / RFU, ARID1A / Fold change vs veh, ARID1A / RFU, ZNF146 / Fold change vs veh, ZNF146 / RFU, ZNF330 / Fold change vs veh, ZNF330 / RFU, GPN3 / Fold change vs veh, GPN3 / RFU, C9orf123 / Fold change vs veh, C9orf123 / RFU, N4BP2L2 / Fold change vs veh, N4BP2L2 / RFU, ARFIP1 / Fold change vs veh, ARFIP1 / RFU, FAM179B / Fold change vs veh, FAM179B / RFU, BCL10 / Fold change vs veh, BCL10 / RFU, UHRF1BP1L / Fold change vs veh, UHRF1BP1L / RFU, BET1 / Fold change vs veh, BET1 / RFU, CNOT2 / Fold change vs veh, CNOT2 / RFU, ZNF268 / Fold change vs veh, ZNF268 / Fold change vs veh, ZNF507 / RFU, DGCR2 / Fold change vs veh, DGCR2 / RFU, WDSUB1 / Fold change vs veh, WDSUB1 / Fold change vs veh, HSP90B1 /// MIR3652 / RFU, ADSS / Fold change vs veh, ADSS / RFU, GK / Fold change vs veh, GK / RFU, ZNF148 / Fold change vs veh, ZNF148 / RFU, TAF9 / Fold change vs veh, TAF9 / RFU, SLC1A5 / Fold change vs veh, SLC1A5 / RFU, SLMO2 / Fold change vs veh, SLMO2 / RFU, ABCC4 / Fold change vs veh, ABCC4 / RFU, LOC101060439 /// RAP1B / Fold change vs veh, LOC101060439 /// RAP1B / RFU, RFX7 / Fold change vs veh, RFX7 / RFU, GTPBP10 / Fold change vs veh, GTPBP10 / RFU, CNEP1R1 / Fold change vs veh, CNEP1R1 / RFU, BIVM-ERCC5 /// ERCC5 / Fold change vs veh, BIVM-ERCC5 /// ERCC5 / RFU, ILF3 / Fold change vs veh, ILF3 / RFU 11762660_at / Fold change /veh 11762660_at / RFU VCAN (11757783_s_at) / Fold change /veh VCAN (11757783_s_at) / RFU DDX43 (11728927_at) / Fold change /veh DDX43 (11728927_at) / RFU KRT8 (11758188_x_at) / Fold change /veh KRT8 (11758188_x_at) / RFU NKD1 (11759106_at) / Fold change /veh NKD1 (11759106_at) / RFU SRD5A1 (11742802_a_at) / Fold change /veh SRD5A1 (11742802_a_at) / RFU TPSAB1 /// TPSB2 (11721975_s_at) / Fold change /veh TPSAB1 /// TPSB2 (11721975_s_at) / RFU GSTM3 (11746129_a_at) / Fold change /veh GSTM3 (11746129_a_at) / RFU IL23R (11737362_x_at) / Fold change /veh IL23R (11737362_x_at) / RFU TMEM51 (11727254_a_at) / Fold change /veh TMEM51 (11727254_a_at) / RFU PIWIL2 (11732686_x_at) / Fold change /veh PIWIL2 (11732686_x_at) / RFU ORM1 (11744905_x_at) / Fold change /veh ORM1 (11744905_x_at) / RFU CCDC152 (11743942_at) / Fold change /veh CCDC152 (11743942_at) / RFU ECM1 (11717891_a_at) / Fold change /veh ECM1 (11717891_a_at) / RFU IL23R (11748794_a_at) / Fold change /veh IL23R (11748794_a_at) / RFU TNFAIP8L3 (11732012_x_at) / Fold change /veh TNFAIP8L3 (11732012_x_at) / RFU MBOAT4 (11741988_at) / Fold change /veh MBOAT4 (11741988_at) / RFU 11764193_at / Fold change /veh 11764193_at / RFU TMEM53 (11763286_at) / Fold change /veh TMEM53 (11763286_at) / RFU MAGEB2 (11727129_at) / Fold change /veh MAGEB2 (11727129_at) / RFU TMEM200A (11744735_a_at) / Fold change /veh TMEM200A (11744735_a_at) / RFU CCDC152 (11751479_a_at) / Fold change /veh CCDC152 (11751479_a_at) / RFU FAM211A (11726209_a_at) / Fold change /veh FAM211A (11726209_a_at) / RFU RGS16 (11746705_a_at) / Fold change /veh RGS16 (11746705_a_at) / RFU VCAN (11755009_s_at) / Fold change /veh VCAN (11755009_s_at) / RFU RHOB (11743442_s_at) / Fold change /veh RHOB (11743442_s_at) / RFU RGS16 (11720943_a_at) / Fold change /veh RGS16 (11720943_a_at) / RFU RGS16 (11720944_at) / Fold change /veh RGS16 (11720944_at) / RFU, VPS4B / Fold change vs veh, VPS4B / RFU, CREB1 / Fold change vs veh, CREB1 / RFU, DNAJC13 / Fold change vs veh, DNAJC13 / RFU, GNAQ / Fold change vs veh, GNAQ / RFU, CDK5R1 / Fold change vs veh, CDK5R1 / RFU, ZRANB3 / Fold change vs veh, ZRANB3 / RFU, CUL4A / Fold change vs veh, CUL4A / RFU, CCNY / Fold change vs veh, CCNY / RFU, UFL1 / Fold change vs veh, UFL1 / RFU, COG3 / Fold change vs veh, COG3 / RFU, DIAPH2 / Fold change vs veh, DIAPH2 / RFU, SKA2 / Fold change vs veh, SKA2 / RFU, AFF3 / Fold change vs veh, AFF3 / RFU, LMF1 / Fold change vs veh, LMF1 / RFU, IPO11 / Fold change vs veh, IPO11 / RFU, DFFB / Fold change vs veh, DFFB / RFU, FOXP1 / Fold change vs veh, FOXP1 / RFU, CARD8 / Fold change vs veh, CARD8 / RFU, STRN3 / Fold change vs veh, STRN3 / RFU, ADK / Fold change vs veh, ADK / RFU, RASSF2 / Fold change vs veh, RASSF2 / RFU, WIPF1 / Fold change vs veh, WIPF1 / RFU, LARP1B / Fold change vs veh, LARP1B / RFU, RASA1 / Fold change vs veh, RASA1 / RFU, RB1 / Fold change vs veh, RB1 / RFU, PPFIA1 / Fold change vs veh, PPFIA1 / RFU, MAT2A / Fold change vs veh, MAT2A / RFU, CCT5 / Fold change vs veh, CCT5 / RFU, WDR92 / Fold change vs veh, WDR92 / RFU, CUX1 / Fold change vs veh, CUX1 / RFU, TTC7A / Fold change vs veh, TTC7A / RFU, TMEM135 / Fold change vs veh, TMEM135 / RFU, DEPTOR / Fold change vs veh, DEPTOR / RFU, CPM / Fold change vs veh, CPM / RFU, DNAJB6 / Fold change vs veh, DNAJB6 / RFU, CACNA2D3 / Fold change vs veh, CACNA2D3 / RFU, DTX4 / Fold change vs veh, DTX4 / RFU, TFCP2 / Fold change vs veh, TFCP2 / RFU, GMCL1 /// GMCL1P1 / Fold change vs veh, GMCL1 /// GMCL1P1 / RFU, AEBP2 / Fold change vs veh, AEBP2 / RFU, SNHG1 /// SNORD22 /// SNORD25 /// SNORD26 /// SNORD27 /// SNORD28 /// SNORD29 /// SNORD31 / Fold change vs veh, SNHG1 /// SNORD22 /// SNORD25 /// SNORD26 /// SNORD27 /// SNORD28 /// SNORD29 /// SNORD31 / Fold change (Aza/veh), C12orf56 (ProbeSet 11735607_a_at) / Fold change (ACY-1035/veh), C12orf56 (ProbeSet 11735607_a_at) / Fold change (Aza/veh), FGFR1OP (ProbeSet 11751329_s_at) / Fold change (ACY-1035/veh), FGFR1OP (ProbeSet 11751329_s_at) / Fold change (Aza/veh), VPS36 (ProbeSet 11739960_a_at) / Fold change (ACY-1035/veh), VPS36 (ProbeSet 11739960_a_at) / RFU SYPL1 (11715823_x_at) / Fold change /veh SYPL1 (11715823_x_at) / RFU IGFBP7 (11715501_s_at) / Fold change /veh IGFBP7 (11715501_s_at) / RFU REEP3 (11722064_at) / Fold change /veh REEP3 (11722064_at) / RFU IGLL1 (11728026_x_at) / Fold change /veh IGLL1 (11728026_x_at): dose or concentration left out as unconfirmed
Conditions: ProbeSet 11720270_a_at; LIST B

SMILES: Nc1ccc(-c2cccs2)cc1NC(=O)c1ccc2c(c1)cc(C1CC1)n2CCN1CCOCC1 [ACY-1035]
- RFU, IBTK: 373.26 RFU
